# Laboratory results from patent US20080222745A1, “Colcemid-Treatment of Oocytes to enhance Nuclear Transfer Cloning” (Utah State University, priority 2007, published 2008).
# Values joined by “and” are separate entries in the source; they are usually repeats but may differ in a detail not shown here. Identical values can stand only once. “Also recorded” adds a separate entry of the source. Like-named read-outs stand apart in the source and are kept apart here. Marks after values point to notes of the source that are not given here.
# Tests used:
# bovine oocytes [1] = test: Membrane projections of bovine oocytes after colcemid treatment; format: cell-based; conditions: for oocytes exhibiting an obvious membrane projection: colcemid treatment for 2 to 4 hr
# bovine NT blastocysts = test: Chromosomal analysis and cell number count of Day 7 NT blastocysts; format: cell-based; conditions: for No. cells blastocysts (mean ± SD): oocytes matured 16-17 hours, 0.2 μg/ml for 2-3 hours; for Cell number of blastocysts (mean ± SD): 0.2 μg/ml for 2-3 hr
# Description: Day 7 blastocysts were prepared and examined for their cytogenetic composition and the number of nuclei contained was verified. […] Chromosomes were examined at 1000× under a Zeiss microscope, and the chromosome composition was determined for each blastocyst.
# [2] = tested on: NT embryos transferred to recipient cows; test: Pregnancy rates after transfer of NT embryos to recipient cows; format: in vivo, bovine
# Excerpt: FIG. 1 is a diagram showing pregnancy rates throughout gestation following transfer of NT embryos derived from colcemid-treated versus untreated heifer cytoplasts. […] Six to seven days after NT, morulae and blastocysts were transferred to recipient cows. The solid bars show pregnancy rates for nuclear transfer embryos generated from heifer oocytes which were not treated with colcemid.
# The day 6-7 morulae and blastocysts were selected and transferred to recipient cows. A total of 191 recipient cows were used for embryo transfer. Forty cows received embryos from colcemid-treated oocytes and 151 cows received embryos from non-treated oocytes. Pregnancy rates were monitored throughout gestation.
# bovine oocytes [3] = conditions: colcemid vs control, 15-22 hr maturation
# Description: Oocytes were vortexed in 1 ml PB1+ containing 10 mg/ml hyaluronidase for 4 minutes to completely remove cumulus cells. Oocytes of good quality were selected for use. Oocytes were loaded with Ca^2+ indicator by incubation in 2 μM Fura-2 AM ester (Molecular Probes, Eugene, Oreg.) and 0.02% Pluronic F-127 (Molecular Probes) in Ca^2+- and Mg^2+-free phosphate buffered saline (Hyclone Laboratories) containing 0.32 mM sodium pyruvate, 5.55 mM glucose, 3 mg/ml BSA, and 100 μM EGTA at 39° C. in darkness for 45 min. After loading with indicator, oocytes were washed extensively with PB1+ (phosphate-buffered saline with Ca^2+ and Mg^2+ plus 5.55 mM glucose, 0.32 mM sodium pyruvate, 3 mg/ml BSA) and maintained in this solution at 39° C. until use.
# Fura-2 loaded oocytes were transferred to a 50-μl drop of PB1+ medium covered with mineral oil.
smiles,measurement,setting,value
"CN[C@H]1CCc2cc(OC)c(OC)c(OC)c2-c2ccc(OC)c(=O)cc21 [colcemid, N-deacetyl-N-methylcolchicine]",No. oocytes with blebs or Pb1 + bleb (%),"bovine oocytes [1]; oocytes with PB1 matured 16-17 hr, 0.2 μg/ml for 2 h, 26 of 36 oocytes",26 (72.2) %
same,No. oocytes with blebs or Pb1 + bleb (%),"bovine oocytes [1]; oocytes with PB1 matured 16-17 hr, 0.2 μg/ml for 4 h, 31 of 39 oocytes",31 (79.5) %
same,No. oocytes with blebs or Pb1 + bleb (%),"bovine oocytes [1]; oocytes with PB1 matured 16-17 hr, 0.4 μg/ml for 2 h, 29 of 38 oocytes",29 (76.3) %
same,No. oocytes with blebs or Pb1 + bleb (%),"bovine oocytes [1]; oocytes with PB1 matured 16-17 hr, 0.4 μg/ml for 4 h, 28 of 38 oocytes",28 (73.6) %
same,oocytes exhibiting an obvious membrane projection,bovine oocytes [1]; oocytes with PB1 matured 16-17 hr,approximately 80%
same,No. oocytes with blebs or Pb1 + bleb (%),"bovine oocytes [1]; oocytes without PB1 matured 16-17 hr, 0.1 μg/ml for 1 h, 32 of 46 oocytes",32 (69.6) %
same,No. oocytes with blebs or Pb1 + bleb (%),"bovine oocytes [1]; oocytes without PB1 matured 16-17 hr, 0.1 μg/ml for 2 h, 39 of 48 oocytes",39 (81.2) %
same,No. oocytes with blebs or Pb1 + bleb (%),"bovine oocytes [1]; oocytes without PB1 matured 16-17 hr, 0.1 μg/ml for 4 h, 43 of 46 oocytes",43 (93.4) %
same,No. oocytes with blebs or Pb1 + bleb (%),"bovine oocytes [1]; oocytes without PB1 matured 16-17 hr, 0.2 μg/ml for 2 h, 33 of 42 oocytes",33 (78.6) %
same,No. oocytes with blebs or Pb1 + bleb (%),"bovine oocytes [1]; oocytes without PB1 matured 16-17 hr, 0.2 μg/ml for 4 h, 38 of 42 oocytes",38 (90.5) %
same,No. oocytes with blebs or Pb1 + bleb (%),"bovine oocytes [1]; oocytes without PB1 matured 16-17 hr, 0.4 μg/ml for 2 h, 35 of 43 oocytes",35 (81.3) %
same,No. oocytes with blebs or Pb1 + bleb (%),"bovine oocytes [1]; oocytes without PB1 matured 16-17 hr, 0.4 μg/ml for 4 h, 34 of 41 oocytes",34 (82.9) %
same,oocytes exhibiting an obvious membrane projection,bovine oocytes [1]; oocytes without PB1 matured 16-17 hr,80-93%
same,Cell numbers of blastocysts vs control groups,bovine NT blastocysts; colcemid-treated groups vs control groups,numerically higher; also recorded: numerical higher
same,No. cells blastocysts (mean ± SD),bovine NT blastocysts; culture system BCR,50.3 ± 7.6^c
same,No. cells blastocysts (mean ± SD),bovine NT blastocysts; culture system SCR and co-culture,107.8 ± 21.6^a
same,No. cells blastocysts (mean ± SD),bovine NT blastocysts; culture system SCR,70.5 ± 7.8^b
same,cell number of blastocysts vs untreated,bovine NT blastocysts; embryos cultured in SCR and BCR systems,increased
same,Cell number of blastocysts (mean ± SD),"bovine NT blastocysts; oocytes matured 14-15 hr, without PB1",113 ± 10
same,Cell number of blastocysts (mean ± SD),"bovine NT blastocysts; oocytes matured 16-17 hr, with PB1",103 ± 20
same,Cell number of blastocysts (mean ± SD),"bovine NT blastocysts; oocytes matured 16-17 hr, without PB1",118 ± 17
same,Cell number of blastocysts (mean ± SD),"bovine NT blastocysts; oocytes matured 19-20 hr, with PB1",91 ± 9
same,Cell number of blastocysts (mean ± SD),"bovine NT blastocysts; oocytes matured 19-20 hr, without PB1",107 ± 11
same,term rate,"[2]; MI heifer oocytes matured 16-17 hr, 0.2 or 0.4 μg/ml colcemid 2-3 hr, 40 recipient cows, non-treated group 3.3%",12.5%
same,pregnancy rates vs non-treated group,"[2]; at 60, 90, 180 days, P<0.05",Higher
same,Blastocyst (%),"bovine NT embryos; Table 3: oocytes matured 16-17 hr, 0.2 μg/ml for 2-3 h, 38 of 90 embryos cultured",38 (42.2)^a %
same,Morula (%),"bovine NT embryos; Table 3: oocytes matured 16-17 hr, 0.2 μg/ml for 2-3 h, 44 of 90 embryos cultured",44 (48.9)^a %
same,2-cell (%),"bovine NT embryos; Table 3: oocytes matured 16-17 hr, 0.2 μg/ml for 2-3 h, 76 of 90 embryos cultured",76 (84.4) %
same,cleavage of NT embryos,"bovine NT embryos; among treatment groups, vs controls, 0.2 μg/ml for 2-3 hr",no difference
same,rate of hatched blastocysts vs untreated groups,bovine NT embryos; colcemid groups vs untreated groups,much higher
same,rate of morula and blastocyst development vs untreated groups,bovine NT embryos; culture in SCR or BCR media,improved
same,Blastocyst (%),"bovine NT embryos; culture system BCR, oocytes matured 16-17 hours, 0.2 μg/ml for 2-3 hours, 20 of 110 cloned embryos, 5% CO2 in air",18.6% and 20 (18.2)^c %
same,Morula (%),"bovine NT embryos; culture system BCR, oocytes matured 16-17 hours, 0.2 μg/ml for 2-3 hours, 27 of 110 cloned embryos",27 (24.5)^b %
same,2-cell (%),"bovine NT embryos; culture system BCR, oocytes matured 16-17 hours, 0.2 μg/ml for 2-3 hours, 81 of 110 cloned embryos",81 (73.6) %
same,Hatched blastocyst (%),"bovine NT embryos; culture system BCR, oocytes matured 16-17 hours, 0.2 μg/ml for 2-3 hours, 110 cloned embryos",0%
same,Hatched blastocyst (%),"bovine NT embryos; culture system SCR and co-culture, oocytes matured 16-17 hours, 0.2 μg/ml for 2-3 hours, 19 of 86 cloned embryos",19 (22.0)^a %
same,Blastocyst (%),"bovine NT embryos; culture system SCR and co-culture, oocytes matured 16-17 hours, 0.2 μg/ml for 2-3 hours, 34 of 86 cloned embryos",39.5% and 34 (39.5)^a %
same,Morula (%),"bovine NT embryos; culture system SCR and co-culture, oocytes matured 16-17 hours, 0.2 μg/ml for 2-3 hours, 42 of 86 cloned embryos",42 (48.8)^a %
same,2-cell (%),"bovine NT embryos; culture system SCR and co-culture, oocytes matured 16-17 hours, 0.2 μg/ml for 2-3 hours, 74 of 86 cloned embryos",74 (86.0) %
same,Hatched blastocyst (%),"bovine NT embryos; culture system SCR, oocytes matured 16-17 hours, 0.2 μg/ml for 2-3 hours, 5 of 135 cloned embryos",5 (3.7)^b %
same,Blastocyst (%),"bovine NT embryos; culture system SCR, oocytes matured 16-17 hours, 0.2 μg/ml for 2-3 hours, 31 of 135 cloned embryos",31 (23.0)^b %
same,Morula (%),"bovine NT embryos; culture system SCR, oocytes matured 16-17 hours, 0.2 μg/ml for 2-3 hours, 41 of 135 cloned embryos",41 (30.3)^b %
same,2-cell (%),"bovine NT embryos; culture system SCR, oocytes matured 16-17 hours, 0.2 μg/ml for 2-3 hours, 96 of 135 cloned embryos",96 (71.1) %
same,Hatching Blastocyst (%),"bovine NT embryos; oocytes matured 14-15 hr, without PB1, 0.2 μg/ml for 2-3 hr, 26 of 100 embryos cultured",26 (26)^a %
same,Blastocyst (%),"bovine NT embryos; oocytes matured 14-15 hr, without PB1, 0.2 μg/ml for 2-3 hr, 40 of 100 embryos cultured",40% and 40 (40)^a %
same,Morula (%),"bovine NT embryos; oocytes matured 14-15 hr, without PB1, 0.2 μg/ml for 2-3 hr, 48 of 100 embryos cultured",48 (48) %
same,2-cell (%),"bovine NT embryos; oocytes matured 14-15 hr, without PB1, 0.2 μg/ml for 2-3 hr, 85 of 100 embryos cultured",85 (85) %
same,Hatching Blastocyst (%),"bovine NT embryos; oocytes matured 16-17 hr, with PB1, 0.2 μg/ml for 2-3 hr, 21 of 81 embryos cultured",21 (25.9)^a %
same,Blastocyst (%),"bovine NT embryos; oocytes matured 16-17 hr, with PB1, 0.2 μg/ml for 2-3 hr, 36 of 81 embryos cultured",44.4% and 36 (44.4)^a %
same,Morula (%),"bovine NT embryos; oocytes matured 16-17 hr, with PB1, 0.2 μg/ml for 2-3 hr, 45 of 81 embryos cultured",45 (55.6) %
same,2-cell (%),"bovine NT embryos; oocytes matured 16-17 hr, with PB1, 0.2 μg/ml for 2-3 hr, 69 of 81 embryos cultured",69 (85.2) %
same,Hatching Blastocyst (%),"bovine NT embryos; oocytes matured 16-17 hr, without PB1, 0.2 μg/ml for 2-3 hr, 22 of 90 embryos cultured",22 (24.2)^a %
same,Blastocyst (%),"bovine NT embryos; oocytes matured 16-17 hr, without PB1, 0.2 μg/ml for 2-3 hr, 38 of 90 embryos cultured",42.2% and 38 (42.2)^a %
same,Morula (%),"bovine NT embryos; oocytes matured 16-17 hr, without PB1, 0.2 μg/ml for 2-3 hr, 44 of 90 embryos cultured",44 (48.9) %
same,2-cell (%),"bovine NT embryos; oocytes matured 16-17 hr, without PB1, 0.2 μg/ml for 2-3 hr, 76 of 90 embryos cultured",76 (84.4) %
same,Blastocyst (%),"bovine NT embryos; oocytes matured 16-17 hr, 0.2 μg/ml for 5-6 h, 32 of 76 embryos cultured",32 (42.1)^a %
same,Morula (%),"bovine NT embryos; oocytes matured 16-17 hr, 0.2 μg/ml for 5-6 h, 37 of 76 embryos cultured",37 (48.7)^a %
same,2-cell (%),"bovine NT embryos; oocytes matured 16-17 hr, 0.2 μg/ml for 5-6 h, 69 of 76 embryos cultured",69 (90.8) %
same,Blastocyst (%),"bovine NT embryos; oocytes matured 16-17 hr, 0.4 μg/ml for 2-3 h, 32 of 73 embryos cultured",32 (43.8)^a %
same,Morula (%),"bovine NT embryos; oocytes matured 16-17 hr, 0.4 μg/ml for 2-3 h, 37 of 73 embryos cultured",37 (50.7)^a %
same,2-cell (%),"bovine NT embryos; oocytes matured 16-17 hr, 0.4 μg/ml for 2-3 h, 66 of 73 embryos cultured",66 (90.4) %
same,Blastocyst (%),"bovine NT embryos; oocytes matured 16-17 hr, 0.4 μg/ml for 5-6 h, 31 of 81 embryos cultured",31 (38.8)^a %
same,Morula (%),"bovine NT embryos; oocytes matured 16-17 hr, 0.4 μg/ml for 5-6 h, 39 of 81 embryos cultured",39 (48.1)^a %
same,2-cell (%),"bovine NT embryos; oocytes matured 16-17 hr, 0.4 μg/ml for 5-6 h, 66 of 81 embryos cultured",66 (81.5) %
same,Blastocyst (%),"bovine NT embryos; oocytes matured 19-20 hr, with PB1, 0.2 μg/ml for 2-3 hr, 30 of 107 embryos cultured",30 (28.0)^b %
same,Morula (%),"bovine NT embryos; oocytes matured 19-20 hr, with PB1, 0.2 μg/ml for 2-3 hr, 38 of 107 embryos cultured",38 (35.5) %
same,2-cell (%),"bovine NT embryos; oocytes matured 19-20 hr, with PB1, 0.2 μg/ml for 2-3 hr, 88 of 107 embryos cultured",88 (82.2) %
same,Hatching Blastocyst (%),"bovine NT embryos; oocytes matured 19-20 hr, with PB1, 0.2 μg/ml for 2-3 hr, printed count 6, 107 embryos cultured",6 (15.0)^b %
same,Hatching Blastocyst (%),"bovine NT embryos; oocytes matured 19-20 hr, without PB1, 0.2 μg/ml for 2-3 hr, 14 of 66 embryos cultured",14 (21.2)^a %
same,Blastocyst (%),"bovine NT embryos; oocytes matured 19-20 hr, without PB1, 0.2 μg/ml for 2-3 hr, 25 of 66 embryos cultured",38% and 25 (37.9)^a %
same,Morula (%),"bovine NT embryos; oocytes matured 19-20 hr, without PB1, 0.2 μg/ml for 2-3 hr, 32 of 66 embryos cultured",32 (48.5) %
same,2-cell (%),"bovine NT embryos; oocytes matured 19-20 hr, without PB1, 0.2 μg/ml for 2-3 hr, 56 of 66 embryos cultured",56 (84.8) %
same,average blastocyst development rate,"bovine NT embryos; under 5% CO2 in air, especially oocytes matured for 14 to 17 hr and treated with colcemid",over 40%
same,"intracellular calcium transients, trend between treatments",bovine oocytes [3],No trend
